We go through nine molecules from paper PMC8401042, “Non-Toxic Dimeric Peptides Derived from the Bothropstoxin-I Are Potent SARS-CoV-2 and Papain-like Protease Inhibitors” (Molecules, 2021).

Assay [1] has as its target T1, SARS-CoV-2 PLpro (Severe acute respiratory syndrome coronavirus 2, UniProt P0DTD1). The assay can be described thus: SARS-CoV-2 PLpro FRET enzyme inhibition assay. It is filed as biochemical. Conditions: for inhibition at 10 µM: 10 µM peptide, 27 µM substrate, 37 °C.
The target of assay [2] is T1, SARS-CoV-2 PLpro. The assay is described as follows: Microscale thermophoresis (MST) binding assay. The settings on record: 100 nM labelled PLpro, peptides 0.015 to 500 µM, 50 mM HEPES pH 7.5, 100 mM NaCl, 2 mM DTT, DMSO 5%; triplicate, Hill fit.
A further assay has as its system SARS-CoV-2. The settings on record: 24 h, 100 µM.
The target in assay [3] is SARS-CoV-2 Papain-like protease (PL^pro) (SARS-CoV-2) (UniProt P0DTD1).
The target is the same in assay [4]. This is another data set of the same source.
[5] abbreviates: 70 nM enzyme, 27 µM FRET substrate, 50 mM HEPES pH 7.5, 0.01% Triton X-100, 5 mM DTT, 30 min pre-incubation at 37 °C, Hill fit, two independent experiments, read-out: IC50 against PLpro.
Setting [6] is: calculated from IC50 values, Figure 3A, read-out: pIC50 (−logIC50), PLpro (converted).

Like-named read-outs stand apart in the source and are kept apart here. Bridge positions count the residues as written; N and C are the ends. Square brackets hold non-standard residues; d marks the D form. Ends that are not written are not given here. Peptide text beside a SMILES is read from it. I, II: the chains in the order shown.

In general, inhibition refers to the change of the read-out against control, counted positive when it falls. For orientation: Kd means a measure of binding affinity in units of concentration. A high value points to a looser complex. On to `CC(C)C[C@H](NC(=O)[C@H](Cc1c[nH]cn1)NC(=O)[C@H](Cc1ccc(O)cc1)NC(=O)[C@H](CCCNC(=N)N)NC(=O)[C@H](Cc1ccc(O)cc1)NC(=O)[C@H](CCCCN)NC(=O)[C@H](C)N)C(=O)N[C@@H](CCCCN)C(=O)N1CCC[C@H]1C(=O)N[C@@H](Cc1ccccc1)C(=O)NCCCC[C@H](NC(=O)[C@H](Cc1ccccc1)NC(=O)[C@@H]1CCCN1C(=O)[C@H](CCCCN)NC(=O)[C@H](CC(C)C)NC(=O)[C@H](Cc1c[nH]cn1)NC(=O)[C@H](Cc1ccc(O)cc1)NC(=O)[C@H](CCCNC(=N)N)NC(=O)[C@H](Cc1ccc(O)cc1)NC(=O)[C@H](CCCCN)NC(=O)[C@H](C)N)C(N)=O` [A1] (I: H-AKYRYHLKPFK-NH2 / II: H-AKYRYHLKPF; amide I:11-II:C), for which the IC50 at SARS-CoV-2 PLpro [1] (setting [5]) amounted to 3500 ± 100 nM. This molecule registered an inhibition at 10 µM against SARS-CoV-2 PLpro [1] (70 nM enzyme) of 97%. In addition, the dissociation constant (Kd) at SARS-CoV-2 PLpro [2] was 6 ± 3 µM. Also, the “SARS-CoV-2 % of inhibition at 100 µM” value in the assay with SARS-CoV-2 worked out at 4%.

Turning to `CC(C)C[C@H](NC(=O)[C@H](Cc1c[nH]cn1)NC(=O)[C@H](Cc1ccc(O)cc1)NC(=O)[C@H](CCCNC(=N)N)NC(=O)[C@H](Cc1ccc(O)cc1)NC(=O)[C@H](C)NC(=O)[C@@H](N)CCCCN)C(=O)N[C@@H](CCCCN)C(=O)N1CCC[C@H]1C(=O)N[C@@H](Cc1ccccc1)C(=O)NCCCC[C@H](NC(=O)[C@H](Cc1ccccc1)NC(=O)[C@@H]1CCCN1C(=O)[C@H](CCCCN)NC(=O)[C@H](CC(C)C)NC(=O)[C@H](Cc1c[nH]cn1)NC(=O)[C@H](Cc1ccc(O)cc1)NC(=O)[C@H](CCCNC(=N)N)NC(=O)[C@H](Cc1ccc(O)cc1)NC(=O)[C@H](C)NC(=O)[C@@H](N)CCCCN)C(N)=O` [A2] (I: H-KAYRYHLKPFK-NH2 / II: H-KAYRYHLKPF; amide I:11-II:C), the IC50 on SARS-CoV-2 PLpro [1] (setting [5]) amounted to 2400 ± 30 nM. Moreover, the inhibition at 10 µM against SARS-CoV-2 PLpro [1] (70 nM enzyme) was 99%. Further, on SARS-CoV-2 PLpro [2], binding was put at a Kd of 7 ± 3 µM. The “SARS-CoV-2 % of inhibition at 100 µM” value in the assay on SARS-CoV-2 is given as 10%.

Regarding `CC(C)C[C@H](NC(=O)[C@H](Cc1c[nH]cn1)NC(=O)[C@H](Cc1ccc(O)cc1)NC(=O)[C@H](CCCNC(=N)N)NC(=O)[C@H](C)NC(=O)[C@H](CCCCN)NC(=O)[C@@H](N)CCCCN)C(=O)N[C@@H](CCCCN)C(=O)N1CCC[C@H]1C(=O)N[C@@H](Cc1ccccc1)C(=O)NCCCC[C@H](NC(=O)[C@H](Cc1ccccc1)NC(=O)[C@@H]1CCCN1C(=O)[C@H](CCCCN)NC(=O)[C@H](CC(C)C)NC(=O)[C@H](Cc1c[nH]cn1)NC(=O)[C@H](Cc1ccc(O)cc1)NC(=O)[C@H](CCCNC(=N)N)NC(=O)[C@H](C)NC(=O)[C@H](CCCCN)NC(=O)[C@@H](N)CCCCN)C(N)=O` [A3] (I: H-KKARYHLKPFK-NH2 / II: H-KKARYHLKPF; amide I:11-II:C), the IC50 on SARS-CoV-2 PLpro [1] (setting [5]) was 1000 ± 30 nM. Besides, the inhibition at 10 µM on SARS-CoV-2 PLpro [1] (70 nM enzyme) amounted to 95%. This molecule also registered a dissociation constant Kd at SARS-CoV-2 PLpro [2] of 6 ± 4 µM.

Regarding `CC(C)C[C@H](NC(=O)[C@H](Cc1c[nH]cn1)NC(=O)[C@H](Cc1ccc(O)cc1)NC(=O)[C@H](C)NC(=O)[C@H](Cc1ccc(O)cc1)NC(=O)[C@H](CCCCN)NC(=O)[C@@H](N)CCCCN)C(=O)N[C@@H](CCCCN)C(=O)N1CCC[C@H]1C(=O)N[C@@H](Cc1ccccc1)C(=O)NCCCC[C@H](NC(=O)[C@H](Cc1ccccc1)NC(=O)[C@@H]1CCCN1C(=O)[C@H](CCCCN)NC(=O)[C@H](CC(C)C)NC(=O)[C@H](Cc1c[nH]cn1)NC(=O)[C@H](Cc1ccc(O)cc1)NC(=O)[C@H](C)NC(=O)[C@H](Cc1ccc(O)cc1)NC(=O)[C@H](CCCCN)NC(=O)[C@@H](N)CCCCN)C(N)=O` [A4] (I: H-KKYAYHLKPFK-NH2 / II: H-KKYAYHLKPF; amide I:11-II:C), the IC50 on SARS-CoV-2 PLpro [1] (setting [5]) was determined as 2000 ± 30 nM. Besides, the inhibition at 10 µM against SARS-CoV-2 PLpro [1] (70 nM enzyme) is 97%. On SARS-CoV-2 PLpro [2], this molecule came in with an equilibrium dissociation constant (Kd) of 3 ± 1 µM. Further, in the assay on SARS-CoV-2, the “SARS-CoV-2 % of inhibition at 100 µM” value is given as 10%.

For `CC(C)C[C@H](NC(=O)[C@H](Cc1c[nH]cn1)NC(=O)[C@H](C)NC(=O)[C@H](CCCNC(=N)N)NC(=O)[C@H](Cc1ccc(O)cc1)NC(=O)[C@H](CCCCN)NC(=O)[C@@H](N)CCCCN)C(=O)N[C@@H](CCCCN)C(=O)N1CCC[C@H]1C(=O)N[C@@H](Cc1ccccc1)C(=O)NCCCC[C@H](NC(=O)[C@H](Cc1ccccc1)NC(=O)[C@@H]1CCCN1C(=O)[C@H](CCCCN)NC(=O)[C@H](CC(C)C)NC(=O)[C@H](Cc1c[nH]cn1)NC(=O)[C@H](C)NC(=O)[C@H](CCCNC(=N)N)NC(=O)[C@H](Cc1ccc(O)cc1)NC(=O)[C@H](CCCCN)NC(=O)[C@@H](N)CCCCN)C(N)=O` [A5] (I: H-KKYRAHLKPFK-NH2 / II: H-KKYRAHLKPF; amide I:11-II:C), at SARS-CoV-2 PLpro [1] (setting [5]), the IC50 amounted to 1900 ± 10 nM. On SARS-CoV-2 PLpro [1] (70 nM enzyme), this molecule came in with an inhibition at 10 µM of 95%. In addition, the dissociation constant (Kd) at SARS-CoV-2 PLpro [2] amounted to 3 ± 2 µM.

For the molecule `CC(C)C[C@H](NC(=O)[C@H](C)NC(=O)[C@H](Cc1ccc(O)cc1)NC(=O)[C@H](CCCNC(=N)N)NC(=O)[C@H](Cc1ccc(O)cc1)NC(=O)[C@H](CCCCN)NC(=O)[C@@H](N)CCCCN)C(=O)N[C@@H](CCCCN)C(=O)N1CCC[C@H]1C(=O)N[C@@H](Cc1ccccc1)C(=O)NCCCC[C@H](NC(=O)[C@H](Cc1ccccc1)NC(=O)[C@@H]1CCCN1C(=O)[C@H](CCCCN)NC(=O)[C@H](CC(C)C)NC(=O)[C@H](C)NC(=O)[C@H](Cc1ccc(O)cc1)NC(=O)[C@H](CCCNC(=N)N)NC(=O)[C@H](Cc1ccc(O)cc1)NC(=O)[C@H](CCCCN)NC(=O)[C@@H](N)CCCCN)C(N)=O` [A6] (I: H-KKYRYALKPFK-NH2 / II: H-KKYRYALKPF; amide I:11-II:C), the IC50 at SARS-CoV-2 PLpro [1] (setting [5]) came out at 1800 ± 70 nM. Further, the inhibition at 10 µM on SARS-CoV-2 PLpro [1] (70 nM enzyme) was 97%. At SARS-CoV-2 PLpro [2], this molecule returned a Kd of 5 ± 3 µM. For the same molecule, the “SARS-CoV-2 % of inhibition at 100 µM” value in the assay on SARS-CoV-2 is listed as 22%.

In turn, `CC(C)C[C@@H](NC(=O)[C@@H](Cc1c[nH]cn1)NC(=O)[C@@H](Cc1ccc(O)cc1)NC(=O)[C@@H](CCCNC(=N)N)NC(=O)[C@@H](Cc1ccc(O)cc1)NC(=O)[C@@H](CCCCN)NC(=O)[C@H](N)CCCCN)C(=O)N[C@H](CCCCN)C(=O)N1CCC[C@@H]1C(=O)N[C@H](Cc1ccccc1)C(=O)NCCCC[C@@H](NC(=O)[C@@H](Cc1ccccc1)NC(=O)[C@H]1CCCN1C(=O)[C@@H](CCCCN)NC(=O)[C@@H](CC(C)C)NC(=O)[C@@H](Cc1c[nH]cn1)NC(=O)[C@@H](Cc1ccc(O)cc1)NC(=O)[C@@H](CCCNC(=N)N)NC(=O)[C@@H](Cc1ccc(O)cc1)NC(=O)[C@@H](CCCCN)NC(=O)[C@H](N)CCCCN)C(N)=O` [A12] (I: H-[dK][dK][dY][dR][dY][dH][dL][dK][dP][dF][dK]-NH2 / II: H-[dK][dK][dY][dR][dY][dH][dL][dK][dP][dF]; amide I:11-II:C; N-terminus assumed) showed an inhibition at 10 µM against SARS-CoV-2 PLpro [1] (70 nM enzyme) of 96%. For the same molecule, the IC50 at SARS-CoV-2 PLpro [1] (setting [6]) is 1290 nM. Besides, at SARS-CoV-2 PLpro [2], the Kd was 1.6 ± 0.3 µM. Also, the “SARS-CoV-2 % of inhibition at 100 µM” value in the assay with SARS-CoV-2 is recorded as 69%.

In turn, “I: KKYRYHLKPFKK-NH2 / II: KKYRYHLKPFK / III: KKYRYHLKPF / IV: KKYRYHLKPF (amide I:11-IV:C, I:12-II:C, II:11-III:C) [A11]” registered an inhibition at 10 µM against SARS-CoV-2 PLpro [1] (70 nM enzyme) of 98%. Moreover, the IC50 on SARS-CoV-2 PLpro [1] (setting [6]) is 1410 nM. This molecule also showed a Kd at SARS-CoV-2 PLpro [2] of 1 ± 0.2 µM. In addition, the “SARS-CoV-2 % of inhibition at 100 µM” value with SARS-CoV-2 was found to be 54%.

On to IFGAILPLALGALKNLIK-NH2 [Hylin a1], for which the IC50 of inhibition of PL^pro activity (cleavage of a FRET peptide substrate) in assay [3] is greater than 10 µM. Further, the percent inhibition of PL^pro activity at 10 µM peptide in assay [4] stood at 13%.
